The source of these data is patent publication US5795907A, “Gastin and CCK receptor ligands” (James Black Foundation Limited, priority 1994, dated 1998).

In this experiment the target is T1, CCKB receptor (Mus musculus, UniProt P56481).
T1 construct: The cortex was dissected, weighed and homogenised in 40ml ice-cold buffer; tissue Charles River (supplier of the CD1 mice); host or cells: cerebral cortex membranes of male CD1 mice
T1 sequence (P56481 1-453): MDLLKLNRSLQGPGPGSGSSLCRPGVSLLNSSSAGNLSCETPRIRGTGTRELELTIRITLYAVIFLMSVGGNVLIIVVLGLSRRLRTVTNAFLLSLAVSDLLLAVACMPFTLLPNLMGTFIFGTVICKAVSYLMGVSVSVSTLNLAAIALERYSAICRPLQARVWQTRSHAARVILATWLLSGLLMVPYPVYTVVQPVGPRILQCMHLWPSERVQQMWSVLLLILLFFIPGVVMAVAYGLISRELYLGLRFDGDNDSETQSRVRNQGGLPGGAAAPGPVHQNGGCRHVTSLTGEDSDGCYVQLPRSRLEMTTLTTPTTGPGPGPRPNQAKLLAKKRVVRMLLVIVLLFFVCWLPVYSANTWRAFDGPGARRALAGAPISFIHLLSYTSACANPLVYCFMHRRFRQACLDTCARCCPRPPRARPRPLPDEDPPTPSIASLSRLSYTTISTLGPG
The experiment can be described thus: CCKB receptor radioligand binding assay in mouse cortical membranes ([125I]-CCK8S). The settings on record: [125I]-CCK8S 200 pM, 150 min at 21±3°; for Ki: read-out: CCKB pKi (converted). The method, then: The compounds of the examples were tested for binding at the CCKB receptor in mouse cortical membranes by means of a radioligand binding assay. The procedure was as follows:
The whole brains from male mice (CD1 22-25 g; Charles River) were removed and placed in ice-cold buffer (pH7.2 @ 21±3°) of the following composition (mM); 10 HEPES, 130 NaCl, 4.7 KCl, 5 MgCl2, 1 EDTA and containing 0.25g.^-1 bacitracin. The cortex was dissected, weighed and homogenised in 40ml ice-cold buffer using a Teflon-in-glass homogeniser. The homogenate was centrifuged at 39,800g for 20 min at 4°, the supernatant discarded and the pellet resuspended by homogenisation in fresh buffer. The homogenate was recentrifuged (39,800 g; 20 min @ 4°) and the final pellet was resuspended in HEPES buffer to give a tissue concentration of 2 mg.ml^-1 (original wet weight).
The membranes ([…]) were incubated for 150 min at 21±3° in a final volume of 0.5 ml with HEPES buffer containing [^125 I]-CCK8S (0.05 ml; 200 pM NEN 2200 Ci.mmol^-1) and competing compound. Total and non-specific binding of [^125 I]-CCK8S were defined using 0.05 ml of buffer and 0.05 ml of […] L-365,260, respectively. The assay was terminated by rapid filtration through pre-soaked Whatman GF/B filters using a Brandell Cell harvester. The filters were washed (3×3 ml) with ice-cold 50 mM Tris-HCl (pH7.4 @ 4° C.) and bound radioactivity determined by counting (1 min.) in a gamma-counter.

Consider “5-(1S-(3,5-diaminophenylaminocarbonyl)-2-phenylethylaminocarbonyl)-6-(1-adamantanemethyl-N-methylaminocarbonyl)-indole and regioisomer with substituents at positions 5 and 6 reversed [Example 43]”, for which the “CCKB pKi” value turned out to be 5.8.

Take `O=C(O)c1cc(NC(=O)[C@H](Cc2ccccc2)NC(=O)c2cc3cc[nH]c3cc2C(=O)NCC2CCC(O)CC2)cc(C(=O)O)c1` (single isomer, unassigned) [Example 110, 5-(1S-(3,5-dicarboxyphenylaminocarbonyl)-2-phenylethylaminocarbonyl)-6-(4-hydroxycyclohexanemethylaminocarbonyl)-indole]: the Ki is 0.398 µM.

For `Nc1ccc(C[C@H](NC(=O)c2cc3[nH]cnc3cc2C(=O)NCC23CC4CC(CC(C4)C2)C3)C(=O)Nc2cc(C(=O)O)cc(C(=O)O)c2)cc1` [Example 64, 5-(1S-(3,5-dicarboxyphenylaminocarbonyl)-2-(4-aminophenyl)-ethylaminocarbonyl)-6-(1-adamantanemethylaminocarbonyl)-benzimidazole], the Ki is 0.0631 µM.

Turning to `O=C(O[C@H]1CO[C@@H](c2ccccc2)OC1)c1cc(NC(=O)[C@H](Cc2ccccc2)NC(=O)c2cc3cc[nH]c3cc2C(=O)NCC23CC4CC(CC(C4)C2)C3)cc(C(=O)O[C@H]2CO[C@@H](c3ccccc3)OC2)c1` [Example 106, 5-(1S-(3,5-di-(cis-4-phenyl-3,5-dioxacyclohexaneoxycarbonyl)-phenylaminocarbonyl)-2-phenylethylaminocarbonyl)-6-(1-adamantanemethyl-aminocarbonyl)-indole], the Ki was 2 µM.

As to `CC(=O)NS(=O)(=O)c1cccc(NC(=O)[C@H](Cc2ccccc2)NC(=O)c2cc3cc[nH]c3cc2C(=O)NCC23CC4CC(CC(C4)C2)C3)c1` [Example 138, 5-(1S-(3-acetylaminosulphonylphenylaminocarbonyl)-2-phenylethylaminocarbonyl)-6-(1-adamantanemethylaminocarbonyl)-indole], the “CCKB pKi” value is recorded as 8.1.
